The values below come from patent US3943154A, “Acylamides of beta-cyano-ethenesulfonyl substituted aminoarenes” (Sanitized Incorporated, priority 1973, dated 1976).

SMILES strings stand for the structures. Converted amounts (≈) assume the structure as drawn. Read-outs that look alike come from different tables or passages of the source.

Series [1] is described as follows: solubility of the product in solvents. The series is classed as physicochemical. As for the experimental part: Naphthalene-2,6-disulfonyl chloride (6.2 g, 0.02 mol) is dissolved in 100 ml dimethylformamide; to the solution is added, in 2-3 portions over about a minute, a solution of 3-(4-aminobenzenesulfonyl)acrylonitrile in 50 ml dimethylformamide containing 6 ml triethylamine (8.4 g, 0.04 mol). The temperature rises to 35° C by the exothermic reaction. The reaction mixture is maintained at room temperature for 2 hours and filtered to separate triethylamine hydrochloride therefrom. Addition of chloroform to the filtrate precipitates the product which, after washing with ethanol/water and drying, is in the form of a slightly off-white powder having a melting point of 312° C. […] It is naphthalene-2,6-bis-sulfon-[4-(2-cyanoethenesulfonyl)anilide]: ##SPC42##

For series [2], the system named is Salmonella typhosa ATCC 6539. The experiment in a line: button assay, antibacterial activity. It counts as cell-based. The settings on record: for MIC: Salmonella enterica, read-out: Antibacterial Activity S.typhosa, minimum inhibitory concentration. As for the experimental part: (§1) In the test program, the minimum inhibitory concentrations of the respective test compounds against various Gram positive and Gram negative bacteria were determined, employing the "button assay" method. The test organisms utilized were standard cultures of Staphylococcus aureus ATCC 6538 DR, a penicillin resistant Gram positive bacterium; Bacillus subtilis ATCC 9525, a spore-forming Gram positive bacillus; and Salmonella typhosa ATCC 6539, a Gram negative bacterium.
(§2) The highest concentration was ordinarily 1000 ppm (parts per million) [0.1%], and dilutions were made in suitable steps down to 1 ppm. Penicillin test buttons of filter paper having a diameter of 13 mm (socalled "Peniassay" buttons) were added to each solution within a test tube and left submerged for five minutes. They were then removed and left to dry on paper towels under sterile conditions. A laminar flow sterile cabinet equipped with ultraviolet lamps operating under positive air pressure was utilized for this purpose.
(§3) An 18-24 hour old nutrient broth culture (standard 1.5% nutrient agar) prepared in conventional manner from a slant and having passed through at least three consecutive daily transfers was used for inoculation. Melted and cooled sterile agar (45° C) was inoculated with the respective broth cultures by addition of 20 ml broth per liter of agar. The agar was then dispensed into Petri dishes (20 ml per plate) under sterile conditions and allowed to harden.
(§4) The test buttons were placed on the surface of the hardened agar and the plates incubated for 24 hours at 37° C. Where, on inspection, a clear zone of inhibition appeared around the button, inhibition of growth was presumed. Where growth touched the button there was no inhibition. For each of the test compounds, the lowest concentration showing a clear zone is reported as the inhibitory concentration in the following table. […]

The test system of series [3] is Bacillus subtilis ATCC 9525. Nature of the series: button assay, antibacterial activity. The series is classed as cell-based. The settings on record: 24 hours at 37° C; for MIC: Bacillus subtilis, ATCC9525, lowest concentration showing a clear zone of inhibition, read-out: Antibacterial Activity B.subtilis, minimum inhibitory concentration; for Antibacterial Activity B.subtilis, minimum inhibitory concentration: lowest concentration showing a clear zone of inhibition. As for the experimental part: as §1
as §2, with “In the tests the respective compounds were dissolved in a suitable solvent, usually acetone or dimethylsulfoxide, to give solutions with known concentrations of active material. The highest” for “The highest”
as §3
The test buttons were placed on the surface of the hardened agar and the plates incubated for 24 hours at 37° C. Where, on inspection, a clear zone of inhibition appeared around the button, inhibition of growth was presumed. Where growth touched the button there was no inhibition. For each of the test compounds, the lowest concentration showing a clear zone is reported as the inhibitory concentration in the following table.
(§5) The button assay and agar incorporation tests were also utilized to determine the corresponding inhibitory concentrations of various control materials, viz., the following well known commercial antimicrobials and fungicides: hexachlorophene, tribromosalicylanilide, trichlorocarbanilide,Captan (N-(trichloromethylthio)4cyclohexene-1,2-dicarboximide) and Zineb (zinc ethylenebis[dithiocarbamate]). The minimum inhibitory concentration of each of the various control materials against the respective organisms is indicated in Table IV below: […]

For series [4], the system named is Aspergillus niger ATCC 6257. Nature of the series: agar incorporation test, antifungal activity. The series is classed as cell-based. Conditions: lowest concentration showing no growth or sporulation, four days at 28° C; for MIC: Aspergillus niger, ATCC6257, 96 h, read-out: Antifungal Activity A. niger, minimum inhibitory concentration. As for the experimental part: The anti-fungal activity of the test compounds was determined employing the "agar incorporation" technique, utilizing spores from Aspergillus niger ATCC 6257 as a representative organism. Test solutions were prepared as described above in acetone or dimethylsulfoxide. A source of carbon agar such as Mycophil Agar was used. The agar was melted and cooled and placed in a constant temperature water bath at 45° C + 3° C. About 13-14 ml of the agar was then poured into a sterile Petri dish, the required amount of test solution to give the desired concentration immediately added thereto, and the dish rotated and swirled by hand to obtain a uniform mixture before the agar hardened.
The hardened plates were inoculated with the test organism by fishing spores from a 7-14 day old slant with the inocculating needle and spotting the spores on the plates, usually in several places. The inoculated plates were incubated for four days in an incubator maintained at 28° C +2° C and with a relative humidity of 95%+.
The lowest concentration of each test compound showing no growth or sporulation of the test organism was taken as the minimum inhibitory concentration and is reported in the following tabulation.
as §5

Series [5] concerns Staphylococcus aureus ATCC 6538 DR. Nature of the series: button assay, antibacterial activity. It counts as cell-based. Conditions: for MIC: Staphylococcus aureus, ATCC6538, 24 h, read-out: Antibacterial Activity S.aureus, minimum inhibitory concentration; for Antibacterial Activity S.aureus, minimum inhibitory concentration: button assay, lowest concentration showing a clear zone of inhibition, 24 hours at 37° C. As for the experimental part: as §1
as §2, with “In the tests the respective compounds were dissolved in a suitable solvent, usually acetone or dimethylsulfoxide, to give solutions with known concentrations of active material. The highest” for “The highest”
as §3, §4

A short description of series [6]: stability of the recovered product. The series is classed as physicochemical. Conditions: recovered by filtration and drying at low temperature under vacuum. The procedure: 10.4 g (0.05 mol) of 2-cyanovinyl 4-aminophenyl sulfone is dissolved in 100 ml of acetone and the solution cooled to 0° C. […] of phosphorus trichloride dissolved in 20 ml of acetone is added dropwise with stirring. After about 40 minutes the reaction mixture is poured into ice water with vigorous stirring. The intermediate initially formed hydrolyzes easily upon the addition of water to form di-4-(2-cyanoethenesulfonyl)anilidophosphine oxide, which can be recovered by filtration and drying at low temperature under vacuum.

The mark [7] stands for this setting: button assay, lowest concentration showing a clear zone of inhibition, 24 hours at 37° C.

Turning to `N#CC=CS(=O)(=O)c1ccc(NS(=O)(=O)c2ccc3cc(S(=O)(=O)Nc4ccc(S(=O)(=O)C=CC#N)cc4)ccc3c2)cc1` [Example 37, naphthalene-2,6-bis-sulfon-[4-(2-cyanoethenesulfonyl)anilide]], in series [1] (dimethylformamide, dimethylsulfoxide), the “solubility in dimethylformamide and dimethylsulfoxide” value is “soluble”. Also, the “solubility in ethanol, chloroform and acetone” value in series [1] (ethanol, chloroform, acetone) was “almost insoluble”. For the same compound, the MIC stood at 20 µg/mL (≈ 29.9 µM) in series [2] (24 h), 50 µg/mL (≈ 74.8 µM) in series [3], 1000 µg/mL (≈ 1500 µM) in series [4] and 20 µg/mL (≈ 29.9 µM) in series [5].

With `N#CC=CS(=O)(=O)c1ccc(NP(=O)(Nc2ccc(S(=O)(=O)C=CC#N)cc2)N(CCCl)CCCl)cc1` [Example 52, di-(2-chloroethyl)amido-di-4-(2-cyanoethenesulfonylanilido)phosphine oxide], the “Antibacterial Activity S.typhosa, minimum inhibitory concentration” value in series [2] (setting [7]) was determined as 10 ppm. The “Antibacterial Activity B.subtilis, minimum inhibitory concentration” value in series [3] was 10 ppm. Further, in series [4], the “Antifungal Activity A. niger, minimum inhibitory concentration” value was found to be 100 ppm. Moreover, the “Antibacterial Activity S.aureus, minimum inhibitory concentration” value in series [5] turned out to be 10 ppm.

On to `N#CC=CS(=O)(=O)c1ccc(NP(=O)(OCC(Br)CBr)OCC(Br)CBr)cc1` (stereo not shown) [Example 56, 0,0-bis(2,3-dibromopropyl)-N-4-(2-cyanoethenesulfonyl)phenyl phosphoramide], for which the MIC was determined as 10 µg/mL (≈ 14.5 µM) in series [2] (setting [7]), 10 µg/mL (≈ 14.5 µM) in series [3], 100 µg/mL (≈ 145 µM) in series [4] and 10 µg/mL (≈ 14.5 µM) in series [5].

In the case of `N#CC=CS(=O)(=O)c1ccc(N[PH](=O)Nc2ccc(S(=O)(=O)C=CC#N)cc2)cc1` [Example 57, di-4-(2-cyanoethenesulfonyl)anilidophosphine oxide], the MIC stood at 20 µg/mL (≈ 43.2 µM) in series [2] (24 h), 20 µg/mL (≈ 43.2 µM) in series [3], 100 µg/mL (≈ 216 µM) in series [4] and 20 µg/mL (≈ 43.2 µM) in series [5]. Moreover, the “stability of the product” value in series [6] is “somewhat unstable”.

Take `N#CC=CS(=O)(=O)c1ccc(NP(=O)(Nc2ccc(S(=O)(=O)C=CC#N)cc2)c2ccccc2)cc1` [Example 58, phenyl-di-[4-(2-cyanoethenesulfonyl)anilido]phosphine oxide]: the MIC in series [2] (24 h) stood at 10 µg/mL (≈ 18.6 µM); in series [3] it was 10 µg/mL (≈ 18.6 µM); in series [4], 100 µg/mL (≈ 186 µM); in series [5], 20 µg/mL (≈ 37.1 µM).

Turning to `N#CC=CS(=O)(=O)c1ccc(NP(=S)(Nc2ccc(S(=O)(=O)C=CC#N)cc2)c2ccccc2)cc1` [Example 59, PHENYL-DI-[4-(2-CYANOETHENESULFONYL)ANILIDO]PHOSPHINE SULFIDE], the MIC was determined as 50 µg/mL (≈ 90.2 µM) in series [2] (setting [7]), 50 µg/mL (≈ 90.2 µM) in series [3], 500 µg/mL (≈ 902 µM) in series [4] and 50 µg/mL (≈ 90.2 µM) in series [5].

`S=C([S-])NCCNC(=S)[S-].[Zn+2]` [Zineb, zinc ethylenebis[dithiocarbamate], reference compound]: the MIC in series [2] (setting [7]) is greater than 10000 µg/mL; in series [3] it was 300 µg/mL; in series [4] it was greater than 1000 µg/mL; in series [5], 300 µg/mL.

`Oc1c(Cl)cc(Cl)c(Cl)c1Cc1c(O)c(Cl)cc(Cl)c1Cl` [hexachlorophene, reference compound]: the MIC is 20 µg/mL (≈ 49.2 µM) in series [2] (setting [7]), 5 µg/mL (≈ 12.3 µM) in series [3], greater than 1000 µg/mL in series [4] and 5 µg/mL (≈ 12.3 µM) in series [5].

Turning to `O=C(Nc1ccc(Br)cc1)c1cc(Br)cc(Br)c1O` [tribromosalicylanilide, reference compound], the “Antibacterial Activity S.typhosa, minimum inhibitory concentration” value in series [2] (setting [7]) is given as 50 ppm. In series [3], the “Antibacterial Activity B.subtilis, minimum inhibitory concentration” value was found to be 100 ppm. Further, the “Antifungal Activity A. niger, minimum inhibitory concentration” value in series [4] was > 1,000 ppm. In addition, in series [5], the “Antibacterial Activity S.aureus, minimum inhibitory concentration” value stood at 100 ppm.

`O=C(Nc1ccc(Cl)cc1)Nc1ccc(Cl)c(Cl)c1` [trichlorocarbanilide, reference compound]: the “Antibacterial Activity S.typhosa, minimum inhibitory concentration” value in series [2] (setting [7]) is given as 10,000 ppm. Moreover, in series [3], the “Antibacterial Activity B.subtilis, minimum inhibitory concentration” value is > 10,000 ppm. Also, the “Antifungal Activity A. niger, minimum inhibitory concentration” value in series [4] is on record as 1,000 ppm. Also, the “Antibacterial Activity S.aureus, minimum inhibitory concentration” value in series [5] came to 10 ppm.
